Like-named read-outs stand apart in the source and are kept apart here.
What was measured:
[1] = target: T1, AR (Homo sapiens, UniProt P10275); experiment: cell-based; assay type: cell-based; conditions: for Rank order, most active to least active, relative PSA level (FIG. 4): 500 nM; for Decrease in PSA level of LNCaP-AR cells, comparison (FIG. 4): at concentrations of 1000 nM; for PSA levels of LN-AR cells (FIG. 21): doses of 100, 200, 500 and 1000 nM
Method: It is well established that PSA levels are indicators of AR activities in prostate cancer. […] The LNCaP-AR cells are a line of lymph node carcinoma of prostate cells transduced with a plasmid that makes express androgen receptors. […] After four days incubation, secreted PSA levels were assayed using PSA ELISA kits (American Qualex, San Clemente, Calif.)

[2] = target: T1, AR; experiment: cell-based; assay type: cell-based; conditions: for Rank order, most active to least active, relative luciferase activity (FIG. 3): 500 nM
Method: The compounds were subjected to tests using an artificial AR response reporter system in a hormone refractory prostate cancer cell line. […] After two days of incubation, reporter activities were assayed.

T1 sequence (P10275 whole entry, looked up): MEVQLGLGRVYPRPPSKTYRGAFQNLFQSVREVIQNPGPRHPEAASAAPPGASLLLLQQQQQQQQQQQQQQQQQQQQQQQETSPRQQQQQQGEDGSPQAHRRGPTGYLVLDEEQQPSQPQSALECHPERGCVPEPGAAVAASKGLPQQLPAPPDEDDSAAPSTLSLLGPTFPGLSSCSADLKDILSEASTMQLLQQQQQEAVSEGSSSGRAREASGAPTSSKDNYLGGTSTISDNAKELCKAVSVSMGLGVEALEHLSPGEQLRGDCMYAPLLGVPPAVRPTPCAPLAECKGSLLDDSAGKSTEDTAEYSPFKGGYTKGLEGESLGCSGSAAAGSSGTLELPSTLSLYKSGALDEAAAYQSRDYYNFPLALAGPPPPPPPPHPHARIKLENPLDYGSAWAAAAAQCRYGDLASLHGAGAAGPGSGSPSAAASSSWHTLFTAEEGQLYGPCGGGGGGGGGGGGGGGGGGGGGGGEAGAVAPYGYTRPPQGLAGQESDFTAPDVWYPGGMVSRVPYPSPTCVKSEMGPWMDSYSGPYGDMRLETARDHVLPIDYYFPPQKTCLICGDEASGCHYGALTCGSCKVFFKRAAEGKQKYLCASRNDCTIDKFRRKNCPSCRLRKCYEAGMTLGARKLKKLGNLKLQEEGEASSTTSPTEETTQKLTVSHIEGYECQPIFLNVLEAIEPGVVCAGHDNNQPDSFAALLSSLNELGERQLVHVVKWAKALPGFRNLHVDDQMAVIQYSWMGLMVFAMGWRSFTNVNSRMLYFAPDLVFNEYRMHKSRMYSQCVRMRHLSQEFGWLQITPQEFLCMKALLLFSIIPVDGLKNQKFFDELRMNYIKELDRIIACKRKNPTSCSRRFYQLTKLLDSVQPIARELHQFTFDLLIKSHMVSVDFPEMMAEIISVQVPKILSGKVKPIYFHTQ

| SMILES | IC50 [1] | IC50 [2] | also measured |
| --- | --- | --- | --- |
| CC1(C)C(=S)N(c2ccc(C#N)c(C(F)(F)F)c2)C(=S)N1c1ccc(O)cc1 [RD59, 4-[3-(4-hydroxyphenyl)-4,4-dimethyl-2,5-dithioxoazolidin-1-yl]-2-trifluoromethylbenzonitrile] | 287 nM | 278 nM |  |
| CC1(C)C(=O)N(c2ccc(C#N)c(C(F)(F)F)c2)C(=S)N1c1ccccc1C(=O)O [RD65, 2-[3-(4-cyano-3-trifluoromethylphenyl)-5,5-dimethyl-4-oxo-2-thioxoimidazolidin-1-yl]benzoic acid] | > 500 nM | 523 nM |  |
| CC1(C)C(=O)N(c2ccc(C#N)c(C(F)(F)F)c2)C(=S)N1c1ccc(C(F)(F)F)cc1 [RD66, 4-(4,4-dimethyl-5-oxo-2-thioxo-3-(4-trifluoromethylphenyl)imidazolidin-1-yl)-2-trifluoromethylbenzonitrile] | 144 nM | 143 nM |  |
| Cc1ccc(N2C(=S)N(c3ccc(C#N)c(C(F)(F)F)c3)C(=O)C2(CCl)CCl)cc1 [RD67, 4-(4,4-bischloromethyl-5-oxo-2-thioxo-3-(4-methylphenyl)imidazolidin-1-yl)-2-trifluoromethylbenzonitrile] | > 500 nM | 521 nM |  |
| Cc1ccc(N2C(=S)N(c3ccc(C#N)c(C(F)(F)F)c3)C(=O)C2(C)CF)cc1 (centres unmarked) [RD68, 4-(4-fluoromethyl-4-methyl-5-oxo-2-thioxo-3-(4-methylphenyl)imidazolidin-1-yl)-2-trifluoromethylbenzonitrile] | 129 nM | 126 nM |  |
| N#Cc1ccc(N2C(=O)C3(CCC3)N(c3ccc(C=O)cc3)C2=S)cc1C(F)(F)F [RD114, 4-[5-(4-formylphenyl)-8-oxo-6-thioxo-5,7-diazaspiro[3.4]oct-7-yl]-2-trifluoromethyl-benzonitrile] | 263 nM |  |  |
| CC(O)c1ccc(N2C(=S)N(c3ccc(C#N)c(C(F)(F)F)c3)C(=O)C23CCC3)cc1 (centres unmarked) [RD116, 4-{5-[4-(1-hydroxyethyl)-phenyl]-8-oxo-6-thioxo-5,7-diazaspiro[3.4]oct-7-yl}-2-trifluoromethyl-benzonitrile] | 187 nM |  |  |
| N#Cc1ccc(N2C(=O)C3(CCC3)N(c3ccc(/C=C/C(N)=O)cc3)C2=S)cc1C(F)(F)F [RD119, 3-{4-[7-(4-Cyano-3-trifluoromethyl-phenyl)-8-oxo-6-thioxo-5,7-diaza-spiro[3.4]oct-5-yl]-phenyl}-acrylamide] | 113 nM |  |  |
| N#Cc1ccc(N2C(=O)C3(CCC3)N(c3ccc(/C=C/CO)cc3)C2=S)cc1C(F)(F)F [RD120, 4-{5-[4-(3-hydroxypropenyl)-phenyl]-8-oxo-6-thioxo-5,7-diazaspiro[3.4]oct-7-yl}-2-trifluoromethylbenzonitrile] | 114 nM |  |  |
| COC(=O)CCCc1ccc(N2C(=S)N(c3ccc(C#N)c(C(F)(F)F)c3)C(=O)C23CCC3)cc1 [RD129, 4-{4-[7-(4-cyano-3-trifluoromethylphenyl)-8-oxo-6-thioxo-5,7-diazaspiro[3.4]oct-5-yl]-phenyl}-butyric acid methyl ester] |  | 432 nM |  |
| N#Cc1ccc(N2C(=O)C3(CCC3)N(c3ccc(CCCC(N)=O)cc3)C2=S)cc1C(F)(F)F [RD130, 4-{4-[7-(4-Cyano-3-trifluoromethylphenyl)-8-oxo-6-thioxo-5,7-diaza-spiro[3.4]oct-5-yl]-phenyl}-butyramide] |  | 112 nM | PSA level, LN/AR cell line, comparison ([1]; for a given dose / concentration): less than the PSA level upon exposure to RD128 and RD129 |
| N#Cc1ccc(N2C(=O)C3(CCC3)N(c3ccc(CCC(N)=O)cc3)C2=S)cc1C(F)(F)F [RD133, 3-{4-[7-(4-cyano-3-trifluoromethylphenyl)-8-oxo-6-thioxo-5,7-diaza-spiro[3.4]oct-5-yl]-phenyl}-propionamide] |  | 224 nM | Rank order, most active to least active, relative PSA level (FIG. 4) [1]: RD138>RD131>RD37>RD133>RD134>RD137>RD138>RD135>bicalutamide; Decrease in PSA level of LNCaP-AR cells, comparison (FIG. 4) [1]: greater decrease in PSA level of LNCaP-AR cells than RD135 and RD137 |
| CNC(=O)CCc1ccc(N2C(=S)N(c3ccc(C#N)c(C(F)(F)F)c3)C(=O)C23CCC3)cc1 [RD134, 3-{4-[7-(4-Cyano-3-trifluoromethylphenyl)-8-oxo-6-thioxo-5,7-diaza-spiro[3.4]oct-5-yl]-phenyl}-N-methyl-propionamide] |  | 234 nM | Rank order, most active to least active, relative PSA level (FIG. 4) [1]: RD138>RD131>RD37>RD133>RD134>RD137>RD138>RD135>bicalutamide; Decrease in PSA level of LNCaP-AR cells, comparison (FIG. 4) [1]: greater decrease in PSA level of LNCaP-AR cells than RD135 and RD137 |
| CS(=O)(=O)c1ccc(N2C(=S)N(c3ccc(C#N)c(C(F)(F)F)c3)C(=O)C23CCC3)cc1 [RD145, 4-[5-(4-methanesulfonylphenyl)-8-oxo-6-thioxo-5,7-diazaspiro[3.4]oct-7-yl]-2-trifluoromethylbenzonitrile] |  |  | Luciferase activity in LNCaP-AR cells (FIG. 3) [2]: acted to reduce luciferase activity; Rank order, most active to least active, relative luciferase activity (FIG. 3) [2]: RD152>RD153>RD145>RD163>RD161=RD162>bicalutamide |
| COC(=O)c1ccc(N2C(=S)N(c3ccc(C#N)c(C(F)(F)F)c3)C(=O)C2(C)C)cc1 [RD152, 4-[3-(4-cyano-3-trifluoromethylphenyl)-5,5-dimethyl-4-oxo-2-thioxo-imidazolidin-1-yl]benzoic acid methyl ester] |  |  | Luciferase activity in LNCaP-AR cells (FIG. 3) [2]: acted to reduce luciferase activity; Rank order, most active to least active, relative luciferase activity (FIG. 3) [2]: RD152>RD153>RD145>RD163>RD161=RD162>bicalutamide |
| CNC(=O)c1ccc(N2C(=S)N(c3ccc(C#N)c(C(F)(F)F)c3)C(=O)C2(C)C)cc1 [RD153, 4-[3-(4-cyano-3-trifluoromethylphenyl)-5,5-dimethyl-4-oxo-2-thioxo-imidazolidin-1-yl]-N-methylbenzamide] |  |  | Luciferase activity in LNCaP-AR cells (FIG. 3) [2]: acted to reduce luciferase activity; Rank order, most active to least active, relative luciferase activity (FIG. 3) [2]: RD152>RD153>RD145>RD163>RD161=RD162>bicalutamide; Luciferase activity, LN/AR cell line (FIG. 29) ([2]; for a given concentration, 125 nmol to 1000 nmol): less than the luciferase activity upon exposure to RD155 |
| CNC(=O)c1ccc(N2C(=S)N(c3ccc(C#N)c(C(F)(F)F)c3)C(=O)C23CCCC3)cc1F [RD162″, 4-(3-(4-Cyano-3-(trifluoromethyl)phenyl)-4-oxo-2-thioxo-1,3-diazaspiro[4.4]nonan-1-yl)-2-fluoro-N-methylbenzamide] |  |  | PSA levels of LN-AR cells (FIG. 21) [1]: decreased |
| N#Cc1ccc(N2C(=O)C3(CCC3)N(c3ccc(O)cc3F)C2=S)cc1C(F)(F)F [RD163, 4-[5-(2-fluoro-4-hydroxyphenyl)-8-oxo-6-thioxo-5,7-diazaspiro[3.4]oct-7-yl]-2-trifluoromethylbenzonitrile] |  |  | Luciferase activity in LNCaP-AR cells (FIG. 3) [2]: acted to reduce luciferase activity; Rank order, most active to least active, relative luciferase activity (FIG. 3) [2]: RD152>RD153>RD145>RD163>RD161=RD162>bicalutamide |
| CN(C)C(=O)CCCc1ccc(N2C(=S)N(c3ccc(C#N)c(C(F)(F)F)c3)C(=O)C23CCC3)cc1 [RD169, 4-(4-(7-(4-Cyano-3-(trifluoromethyl)phenyl)-8-oxo-6-thioxo-5,7-diazaspiro[3.4]octan-5-yl)phenyl)-N,N-dimethylbutanamide] |  |  | PSA levels of LN-AR cells (FIG. 21) [1]: decreased |
| N#CCCCc1ccc(N2C(=S)N(c3ccc(C#N)c(C(F)(F)F)c3)C(=O)C23CCC3)cc1 [RD170, 4-(5-(4-(3-Cyanopropyl)phenyl)-8-oxo-6-thioxo-5,7-diazaspiro[3.4]octan-7-yl)-2-(trifluoromethyl)benzonitrile] |  |  | PSA levels of LN-AR cells (FIG. 21) [1]: decreased |

Reference: US9126941B2, “Treatment of hyperproliferative disorders with diarylhydantoin compounds” (The Regents of the University of California, priority 2005, dated 2015)
